# Assay results from patent US20230067929A1, “HETEROCYCLIC DERIVATIVES, PHARMACEUTICAL COMPOSITIONS AND THEIR USE IN THE TREATMENT, AMELIORATION OR PREVENTION OF CANCER” (Tolremo Therapeutics AG, priority 2018, published 2023).
# Test system: A375 cells
# Assay: A375 cell immunofluorescence assay (with 1 μM S1152 and 0.5 μM S1008), EC50
# Type: cell-based
# Conditions: 1 μM S1152 + 0.5 μM S1008, one day, ratio FL2/FL3 staining (sc-365823 antibody)
# Summary of the method: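 A375 cells were treated for 1 day with 1 μM S1152, 0.5 μM S1008 and compound dose ranges in DMEM/10% FCS/2 mM glutamine, then fixed, permeabilized and immunostained (secondary antibody 2 μg/ml). FL2 (500-530 nm) signal was measured in propidium iodide-defined objects (FL3, 565-600 nm). The normalized ln FL2/ln FL3 ratio was log-transformed, and EC50 came from a 4-parameter fit.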
row,EC50,Compound
1,> 10 µM,CCC(=O)N1CCCC(c2nc(Nc3ccc(O)nc3)cc(-c3cccnc3)n2)C1 (centres unmarked)
2,> 10 µM,CCC(=O)N1CCCC(c2nc(Nc3ncccn3)cc(-c3cccnc3)n2)C1 (centres unmarked)
3,1 to 10 µM,CNC(=O)c1ccc(-c2cc(Nc3cccc(F)c3)nc(C3CCCN(C(C)=O)C3)n2)cc1 (centres unmarked)
4,> 10 µM,O=C(C(F)F)N1CCCC(c2nc(Nc3cccc(F)c3)cc(-c3cccnc3)n2)C1 (centres unmarked)
5,> 10 µM,CCC(=O)N1CCCC(c2nc(Nc3cccc(F)c3)cc(-c3ccc(C(=O)NC)nc3)n2)C1 (centres unmarked)
6,< 1 µM,COc1cncc(-c2cc(Nc3cccc(F)c3)nc([C@@H]3CCCN(C(C)=O)C3)n2)c1
7,1 to 10 µM,CCC(=O)N1CCCC(c2nc(Nc3cccc(F)c3)cc(-c3cccnc3)n2)C1 (centres unmarked)
8,1 to 10 µM,CC(=O)N1CCCC(c2nc(Nc3cccc(F)c3)cc(-c3ccc(N4CCOCC4)nc3)n2)C1 (centres unmarked)
9,> 10 µM,CCC(=O)N1CCCC(c2nc(Nc3ccccc3OC)cc(-c3cccnc3)n2)C1 (centres unmarked)
10,1 to 10 µM,CC(=O)N1CCCC(c2nc(Nc3cccc(C)c3)cc(-c3cncnc3)n2)C1 (centres unmarked)
11,< 1 µM,CC(=O)N1CCCC(c2nc(Nc3cccc(F)c3)cc(-c3cncc(C(F)F)c3)n2)C1 (centres unmarked)
12,> 10 µM,CCC(=O)N1CCCC(c2nc(NC3CCCCC3)cc(-c3cccnc3)n2)C1 (centres unmarked)
13,1 to 10 µM,CC(=O)N1CCCC(c2nc(Nc3cccc(F)c3)cc(-c3ccc(N4C[C@@H]5C[C@H]4CO5)nc3)n2)C1 (some centres unmarked)
14,< 1 µM,COc1cncc(-c2cc(Nc3cccc(Cl)c3)nc([C@@H]3CCCN(C(C)=O)C3)n2)c1
15,> 10 µM,CC(=O)N1CCCC(c2nc(NC34CC(C3)C4)cc(-c3cncnc3)n2)C1 (centres unmarked)
16,1 to 10 µM,CC(=O)N1CCCC(c2nc(Nc3cccc(F)c3)cc(NC3CCCOC3)n2)C1 (centres unmarked)
17,1 to 10 µM,CC(=O)N1CCCC(c2nc(Nc3cccc(F)c3)cc(-c3c(C)noc3C)n2)C1 (centres unmarked)
18,> 10 µM,CC(=O)N1CC(c2nc(Nc3cccc(F)c3)cc(-c3cccnc3)n2)CC(F)(F)C1 (centres unmarked)
19,> 10 µM,CN1CCCC(c2nc(Nc3cccc(F)c3)cc(-c3cccnc3)n2)C1 (centres unmarked)
20,> 10 µM,CC(=O)N1CCCC(c2nc(Nc3cccc(F)c3)cc(NC3CCOCC3)n2)C1 (centres unmarked)
21,1 to 10 µM,CCC(=O)N1CCCC(c2nc(-c3cccnc3)cc(N(C)c3cccc(F)c3)n2)C1 (centres unmarked)
22,1 to 10 µM,CC(=O)N1CC(O)CC(c2nc(Nc3cccc(F)c3)cc(-c3cccnc3)n2)C1 (centres unmarked)

row,EC50,Compound
1,> 10 µM,CCC(=O)N1CCCC(c2nc(NC)cc(-c3cccnc3)n2)C1 (centres unmarked)
2,1 to 10 µM,CNC(=O)N1CCCC(c2nc(Nc3cccc(F)c3)cc(-c3cccnc3)n2)C1 (centres unmarked)
3,> 10 µM,CCC(=O)N1CCCC(c2nc(Nc3cccc(F)c3)cc(-c3ccc4ocnc4c3)n2)C1 (centres unmarked)
4,< 1 µM,CC(=O)N1CCCC(c2nc(Nc3cccc(F)c3)cc(-c3cncc(C)c3)n2)C1 (centres unmarked)
5,> 10 µM,CCC(=O)N1CCCC(c2nc(Nc3cccc(F)c3)cc(NC3CC3)n2)C1 (centres unmarked)
6,> 10 µM,CCC(=O)N1CCCC(c2nc(Nc3ccc(F)cc3)cc(-c3cccnc3)n2)C1 (centres unmarked)
7,> 10 µM,CCC(=O)N1CCCC(c2nc(Nc3cccc(F)c3)cc(C3CCCCC3)n2)C1 (centres unmarked)
8,> 10 µM,CCC(=O)N1CCCC(c2nc(-c3cccnc3)cc(N(c3cccc(F)c3)C(C)C)n2)C1 (centres unmarked)
9,< 1 µM,CC(=O)N1C[C@H](c2nc(Nc3cncc(C)c3)cc(-c3cncc4[nH]ccc34)n2)CC[C@@H]1C
10,< 1 µM,COc1cncc(-c2cc(Nc3cccc(Cl)c3)nc([C@@H]3CC[C@H](C)N(C(C)=O)C3)n2)c1
11,> 10 µM,CCC(=O)N1CCCC(c2nc(Nc3cccc(F)c3)cc(-c3cccc(C(=O)NC)c3)n2)C1 (centres unmarked)
12,< 1 µM,COc1cncc(-c2cc(Nc3cccc(F)c3)nc(C3CCCN(C(C)=O)C3)n2)c1 (centres unmarked)
13,1 to 10 µM,CCC(=O)N1CCCC(c2nc(Nc3cc(F)cc(F)c3)cc(-c3cccnc3)n2)C1 (centres unmarked)
14,> 10 µM,CCN1CCCC(c2nc(Nc3cccc(F)c3)cc(-c3cccnc3)n2)C1 (centres unmarked)
15,> 10 µM,CCC(=O)N1CCCC(c2nc(Nc3cccc(F)c3)cc(-c3cncc4ccccc34)n2)C1 (centres unmarked)
16,> 10 µM,CC(=O)N1CCCC(c2nc(Nc3cccc(F)c3)cc(-c3cnn[nH]3)n2)C1 (centres unmarked)
17,> 10 µM,CCC(=O)N1CCCC(c2nc(Nc3cccc(F)c3)cc(-c3sc(CC)nc3C)n2)C1 (centres unmarked)
18,1 to 10 µM,CC(=O)N1CCCC(c2nc(Nc3cccc(F)c3)cc(-c3cnccc3C)n2)C1 (centres unmarked)
19,> 10 µM,CC(=O)N1CCCC(c2nc(Nc3cccc(F)c3)cc(-c3ccc(N4CCS(=O)(=O)CC4)nc3)n2)C1 (centres unmarked)
20,< 1 µM,COc1cncc(-c2cc(Nc3cccc(C)c3)nc(C3CCCN(C(C)=O)C3)n2)c1 (centres unmarked)
21,1 to 10 µM,CC(=O)N1CCCC(c2cc(Nc3cccc(F)c3)cc(-c3cncnc3)n2)C1 (centres unmarked)
22,1 to 10 µM,O=C1CCCC2C(c3nc(Nc4cccc(F)c4)cc(-c4cccnc4)n3)CCCN12 (centres unmarked)

row,EC50,Compound
1,< 1 µM,CC(=O)N1C[C@H](c2nc(Nc3cncc(C)c3)cc(-c3cncc(C)c3)n2)CC[C@@H]1C
2,< 1 µM,CC(=O)N1CCCC(c2nc(Nc3cc(F)cc(F)c3)cc(-c3cccnc3)n2)C1 (centres unmarked)
3,> 10 µM,CC(=O)N1CCCC(c2nc(Nc3cccc(F)c3)cc(-c3cncc(C(=O)N4CCS(=O)(=O)CC4)c3)n2)C1 (centres unmarked)
4,1 to 10 µM,CCC(=O)N1CCCC(c2nc(Nc3cccc(F)c3)cc(-c3cncnc3)n2)C1 (centres unmarked)
5,< 1 µM,CC(=O)N1CCCC(c2nc(Nc3cccc(F)c3)cc(-c3cncc4nc(C)oc34)n2)C1 (centres unmarked)
6,1 to 10 µM,CCC(=O)N1CCCC(c2nc(Nc3cccc(F)c3)cc(-c3sc(C(C)C)nc3C)n2)C1 (centres unmarked)
7,1 to 10 µM,CC(=O)N1CCCC(c2nc(Nc3ccccc3)cc(-c3cncnc3)n2)C1 (centres unmarked)
8,< 1 µM,CC(=O)N1CCCC(c2nc(Nc3cccc(F)c3)cc(-c3scc4c3OCCO4)n2)C1 (centres unmarked)
9,1 to 10 µM,CCC(=O)N1CCCC(c2nc(Nc3cccc(F)c3)cc(-c3cncc(C)c3)n2)C1 (centres unmarked)
10,> 10 µM,CS(=O)(=O)N1CCCC(c2nc(Nc3cccc(F)c3)cc(-c3cccnc3)n2)C1 (centres unmarked)
11,> 10 µM,CCC(=O)N1CCCC(c2nc(Nc3cccc(F)c3)cc(-c3cnc(N)nc3)n2)C1 (centres unmarked)
12,> 10 µM,CCC(=O)N1CCCC(c2nc(Nc3cccc(F)c3)cc(-c3cncc(F)c3)n2)C1 (centres unmarked)
13,> 10 µM,CC(=O)N1CCCC(c2nc(NC34CC(C3)C4)cc(-c3cccnc3)n2)C1 (centres unmarked)
14,> 10 µM,COCCOCCOCC(=O)N1CCCC(c2nc(Nc3cccc(F)c3)cc(-c3cccnc3)n2)C1 (centres unmarked)
15,> 10 µM,CCC(=O)N1CCCC(c2nc(Nc3cccc(F)c3)cc(-c3ccccc3OC(F)(F)F)n2)C1 (centres unmarked)
16,1 to 10 µM,CC(=O)N1CCCC(c2nc(Nc3cccc(F)c3)cc(-c3cnn(CC(F)(F)F)c3)n2)C1 (centres unmarked)
17,< 1 µM,CNC(=O)c1cncc(-c2cc(Nc3cccc(F)c3)nc(C3CCCN(C(C)=O)C3)n2)c1 (centres unmarked)
18,> 10 µM,CCC(=O)N1CCC[C@H](c2nc(Nc3cccc(F)c3)cc(-c3cccnc3)n2)C1
19,> 10 µM,CC(=O)N1CCCC(c2nc(Nc3ccon3)cc(-c3cncc4[nH]ccc34)n2)C1 (centres unmarked)
20,> 10 µM,CC(=O)N1CCCC(c2nc(Nc3cnccn3)cc(-c3cccnc3)n2)C1 (centres unmarked)
21,< 1 µM,COc1cncc(-c2cc(Nc3cncc(C)c3)nc([C@@H]3CC[C@H](C)N(C(C)=O)C3)n2)c1
